Test results as given in the NIST ThermoML archive (doi:10.1016/j.jct.2005.03.017).
Numbers after ± are expanded uncertainties.

Tests used:
[1] = Liquid; for mass density: 293.15 K, 101.33 kPa; for Normal boiling temperature: Ebulliometric method (Recirculating still)
[2] = refractive index (Na D-line) (dimensionless); conditions: 293.15 K; 101.33 kPa; Liquid; Standard Abbe refractometry

| mass density [1] [kg/m3] | Normal boiling temperature [1] [°C] | refractive index [2] | Compound |
| --- | --- | --- | --- |
| 947.3 ± 0.6 | 155.54 ± 0.1 | 1.451 ± 0.0008 | O=C1CCCCC1 [cyclohexanone] |
| 992.7 ± 0.5 | 141.0 ± 0.1 | 1.3811 ± 0.0008 | CCC(=O)O [propanoic acid] |
|  | 100.08 ± 0.1 | 1.3326 ± 0.0008 | O [water] |
